Data on 45 molecules can be found in ChEMBL document CHEMBL3045490, “N-Thiophenylethyl-2,2-dichloro-1-cyclopropanecarboxamides: modification of the amide part of carpropamid and examination of fungicidal activity” (2009).

A value given as a limit tells only on which side of the number the result lay.

Format in all cases: functional
Assay [1] has as its system Pseudoperonospora cubensis. Kind of assay: Antifungal activity against Pseudoperonospora cubensis in cucumber assessed as lesion area of the disease at 500 ug/ml after 7 days.
Another assay has as its system Botrytis cinerea. Kind of assay: Antifungal activity against Botryotinia fuckeliana in cucumber cotyledon assessed as lesion area of the disease at 500 ug/ml after 4 days.
The next assay deals with Blumeria graminis. Kind of assay: Antifungal activity against Blumeria graminis in wheat plant assessed as lesion area of the disease at 500 ug/ml after 10 days.
The test system of a further assay is Puccinia recondita. In words: Antifungal activity against Puccinia recondita in wheat plant assessed as lesion area of the disease at 500 ug/ml after 10 days.

As for `CCC1(C(=O)NC(C)C2CC2(Cl)Cl)C(C)C1(Cl)Cl` (configuration not stated), the Activity entry (in assay [1]; in the assay with Botrytis cinerea; in the assay with Blumeria graminis; with Puccinia recondita) was “>=80%” in each case.

On to `CCC1(C(=O)NC(C)C2CCCCCC2)C(C)C1(Cl)Cl` (configuration not stated), for which the Activity in assay [1] is recorded as 0%; in the assay with Botrytis cinerea it was “>=80%”; in the assay on Blumeria graminis, “>=80%”; in the assay with Puccinia recondita, “>=80%”.

As to `CCCC1(C(=O)NCCc2csc(Cl)c2)CC1(Cl)Cl` (configuration not stated), the Activity entry in assay [1] was “>=80%”; in the assay on Botrytis cinerea it was 0.5%; in the assay on Blumeria graminis, “>=80%”; in the assay with Puccinia recondita, “>=80%”.

Regarding `CC[C@@]1(C(=O)N[C@H](C)c2ccc(Cl)cc2)[C@@H](C)C1(Cl)Cl` [CARPROPAMIDE], the Activity in assay [1] is 0.5%; in the assay on Botrytis cinerea, “>=80%”; with Blumeria graminis, “>=80%”; in the assay with Puccinia recondita, “>=80%”.

As for `CCC1(C(=O)NC(C)C2CCC2)C(C)C1(Cl)Cl` (configuration not stated), the Activity result (in assay [1]; in the assay on Botrytis cinerea; in the assay on Blumeria graminis; in the assay with Puccinia recondita) was “>=80%” each time.

Turning to `CCC1(C(=O)NCCc2ccc(Cl)cc2Cl)C(C)C1(Cl)Cl` (configuration not stated), the Activity entry (in assay [1]; in the assay with Botrytis cinerea; with Blumeria graminis; in the assay on Puccinia recondita) was “>=80%” each time.

On to `CCC1(C(=O)NC(C)c2csc(Cl)c2)C(C)C1(Cl)Cl` (configuration not stated), for which the Activity in assay [1] is listed as less than 20%; in the assay on Botrytis cinerea, “>=80%”; in the assay on Blumeria graminis, “>=80%”; with Puccinia recondita, “>=80%”.

Consider `CC1(C)C(Cl)(Cl)C1(C)C(=O)NCCc1csc(Cl)c1` (configuration not stated), for which the Activity result in assay [1] is “>=80%”; in the assay on Botrytis cinerea, “>=80%”; in the assay on Blumeria graminis, less than 20%; with Puccinia recondita, 0.5%.

For the molecule `CCC1(C(=O)NCCc2cc(Cl)cs2)C(C)C1(Cl)Cl` (configuration not stated), the Activity entry in assay [1] was “>=80%”; with Botrytis cinerea it was “>=80%”; with Blumeria graminis, “>=80%”; with Puccinia recondita it was less than 40%.

Turning to `CCC1(C(=O)NCc2ccc(Cl)cc2)C(C)C1(Cl)Cl` (configuration not stated), the Activity in assay [1] is recorded as less than 20%; with Botrytis cinerea, “>=80%”; in the assay on Blumeria graminis it was “>=80%”; in the assay on Puccinia recondita, “>=80%”.

As to `CCC1(C(=O)NCCc2ccsc2)C(C)C1(Cl)Cl` (configuration not stated), the Activity result in assay [1] is listed as “>=80%”; with Botrytis cinerea it was “>=80%”; with Blumeria graminis it was “>=80%”; in the assay with Puccinia recondita it was less than 40%.

In the case of `CCC1(C(=O)NCCc2ccc(C(F)(F)F)cc2)C(C)C1(Cl)Cl` (configuration not stated), the Activity entry in assay [1] was “>=80%”; in the assay on Botrytis cinerea, “>=80%”; with Blumeria graminis, 0.5%; in the assay with Puccinia recondita it was “>=80%”.

`CC(NC(=O)C1(c2ccccc2)CC1(Cl)Cl)c1ccc(Cl)cc1` (configuration not stated): the Activity entry (in assay [1]; in the assay with Botrytis cinerea; in the assay with Blumeria graminis; in the assay with Puccinia recondita) was “>=80%” in each case.

As for `CCC1(C(=O)NC(C)C2CCCC2)C(C)C1(Cl)Cl` (configuration not stated), the Activity in assay [1] is reported as 0%; in the assay on Botrytis cinerea it was 3.5%; in the assay on Blumeria graminis, “>=80%”; in the assay on Puccinia recondita, “>=80%”.

As to `CCC1(C(=O)NCCc2ccc(Cl)cc2)C(C)C1(Cl)Cl` (configuration not stated), the Activity in assay [1] is on record as 3.5%; with Botrytis cinerea, “>=80%”; in the assay with Blumeria graminis it was “>=80%”; in the assay with Puccinia recondita it was “>=80%”.

Consider `CCC1(C(=O)NCCc2ccc(F)cc2)C(C)C1(Cl)Cl` (configuration not stated), for which the Activity entry is “>=80%” in assay [1], “>=80%” in the assay with Botrytis cinerea, less than 20% in the assay on Blumeria graminis and less than 40% with Puccinia recondita.

For `CCC1(C(=O)NCCc2ccc(C)cc2)C(C)C1(Cl)Cl` (configuration not stated), the Activity result was “>=80%” in assay [1], “>=80%” in the assay on Botrytis cinerea, 2.5% in the assay on Blumeria graminis and “>=80%” with Puccinia recondita.

Regarding `CCC1(C(=O)NCCc2ccc(F)cc2F)C(C)C1(Cl)Cl` (configuration not stated), the Activity in assay [1] is recorded as 0%; with Botrytis cinerea it was less than 20%; in the assay on Blumeria graminis, 2.5%; in the assay on Puccinia recondita it was “>=80%”.

Regarding `CCC1(C(=O)NC(C)CC(F)(F)F)C(C)C1(Cl)Cl` (configuration not stated), the Activity entry (in assay [1]; in the assay with Botrytis cinerea; in the assay with Blumeria graminis; in the assay with Puccinia recondita) was “>=80%” each time.

As to `CCC1(C(=O)NC(C)C2CCCCC2)C(C)C1(Cl)Cl` (configuration not stated), the Activity entry (in assay [1]; in the assay on Botrytis cinerea; with Blumeria graminis; in the assay with Puccinia recondita) was “>=80%” in each case.

Consider `CCC1(C(=O)OCCc2csc(Cl)c2)C(C)C1(Cl)Cl` (configuration not stated), for which the Activity in assay [1] is listed as less than 20%; in the assay with Botrytis cinerea, 2.5%; in the assay on Blumeria graminis, “>=80%”; with Puccinia recondita it was “>=80%”.

For the molecule `CCC1(C(=O)NCCc2cccc(Cl)c2)C(C)C1(Cl)Cl` (configuration not stated), the Activity was 0% in assay [1], “>=80%” in the assay on Botrytis cinerea, 2.5% in the assay with Blumeria graminis and less than 40% with Puccinia recondita.

As for maneb, the Activity (in assay [1]; in the assay with Puccinia recondita) was 0% throughout.

As for `CCC1(C(=O)NC(C)c2ccc(Cl)s2)C(C)C1(Cl)Cl` (configuration not stated), the Activity result in assay [1] was “>=80%”; with Botrytis cinerea, “>=80%”; with Blumeria graminis it was “>=80%”; with Puccinia recondita, 1.5%.

For `CCC1(C(=O)NCCCc2ccc(Cl)cc2)C(C)C1(Cl)Cl` (configuration not stated), the Activity in assay [1] is 0%; with Botrytis cinerea it was “>=80%”; in the assay with Blumeria graminis it was “>=80%”; in the assay with Puccinia recondita it was “>=80%”.

Consider `CC(C)(C)C(C#N)C(=O)NCCc1csc(Cl)c1` (configuration not stated), for which the Activity result in assay [1] is listed as “>=80%”; in the assay on Botrytis cinerea, “>=80%”; with Blumeria graminis, “>=80%”; in the assay with Puccinia recondita, 1.5%.

`CCC(C)NC(=O)C1(CC)C(C)C1(Cl)Cl` (configuration not stated): the Activity entry in assay [1] is listed as “>=80%”; with Botrytis cinerea it was less than 20%; in the assay on Blumeria graminis it was “>=80%”; with Puccinia recondita it was “>=80%”.

Take `CCC1(C(=O)NCCc2ccc(Cl)c(Cl)c2)C(C)C1(Cl)Cl` (configuration not stated): the Activity in assay [1] was 0%; with Botrytis cinerea it was “>=80%”; with Blumeria graminis, “>=80%”; in the assay on Puccinia recondita it was 3.5%.

For the molecule `CCC1(C(=O)NC(C)C2CC3C=CC2C3)C(C)C1(Cl)Cl` (configuration not stated), the Activity entry in assay [1] is given as “>=80%”; in the assay on Botrytis cinerea it was less than 40%; in the assay with Blumeria graminis, “>=80%”; in the assay on Puccinia recondita, “>=80%”.

In the case of `CC(C)(C)C(Cl)C(=O)NCCc1csc(Cl)c1` (configuration not stated), the Activity entry (in assay [1]; with Botrytis cinerea; with Blumeria graminis; with Puccinia recondita) was “>=80%” throughout.

Regarding `CC1(C)C(C(=O)NCCc2csc(Cl)c2)C1(Cl)Cl` (configuration not stated), the Activity is 1.5% in assay [1], “>=80%” in the assay with Botrytis cinerea, “>=80%” in the assay on Blumeria graminis and 1.5% in the assay with Puccinia recondita.

As for `CCC1(C(=O)NC(C)C)C(C)C1(Cl)Cl` (configuration not stated), the Activity is recorded as 0% in assay [1], 3.5% in the assay with Botrytis cinerea, “>=80%” with Blumeria graminis and “>=80%” in the assay on Puccinia recondita.

As for `CCC1(C(=O)NCCc2csc(Cl)n2)C(C)C1(Cl)Cl` (configuration not stated), the Activity is on record as 0% in assay [1], “>=80%” in the assay with Botrytis cinerea, “>=80%” in the assay on Blumeria graminis and 0.5% in the assay on Puccinia recondita.

Take `CCC1(C(=O)NCCc2ccccc2Cl)C(C)C1(Cl)Cl` (configuration not stated): the Activity result (in assay [1]; with Botrytis cinerea; with Blumeria graminis; in the assay with Puccinia recondita) was “>=80%” throughout.

With `CC(C)(C)C(Br)C(=O)NCCc1csc(Cl)c1` (configuration not stated), the Activity result is “>=80%” in assay [1], “>=80%” in the assay with Botrytis cinerea, “>=80%” with Blumeria graminis and less than 20% in the assay on Puccinia recondita.

As to `CC(NC(=O)C1(C(C)C)CC1(Cl)Cl)c1ccc(Cl)cc1` (configuration not stated), the Activity result in assay [1] is recorded as “>=80%”; with Botrytis cinerea, “>=80%”; in the assay with Blumeria graminis it was “>=80%”; with Puccinia recondita it was less than 20%.

With `CCC1(C(=O)NCCc2ccccc2)C(C)C1(Cl)Cl` (configuration not stated), the Activity in assay [1] was 0%; with Botrytis cinerea, “>=80%”; in the assay with Blumeria graminis, 0.5%; in the assay on Puccinia recondita, 1.5%.

In the case of `CCC1(C(=O)NCC(C)c2ccc(Cl)cc2)C(C)C1(Cl)Cl` (configuration not stated), the Activity in assay [1] is less than 20%; in the assay on Botrytis cinerea, “>=80%”; in the assay with Blumeria graminis, “>=80%”; in the assay on Puccinia recondita it was “>=80%”.

For `CC1(C(=O)NCCc2csc(Cl)c2)CC1(Cl)Cl` (configuration not stated), the Activity in assay [1] is recorded as 0.5%; with Botrytis cinerea, “>=80%”; in the assay on Blumeria graminis it was “>=80%”; with Puccinia recondita, 0.5%.

With `CCC1(C(=O)NCCc2ccc(Br)cc2)C(C)C1(Cl)Cl` (configuration not stated), the Activity result (in assay [1]; with Botrytis cinerea; in the assay on Blumeria graminis; in the assay on Puccinia recondita) was “>=80%” each time.

Regarding `CCC1(C(=O)NCCc2csc(Cl)c2)C(C)C1(Cl)Cl` (configuration not stated), the Activity is listed as 0.5% in assay [1], “>=80%” with Botrytis cinerea, “>=80%” in the assay on Blumeria graminis and “>=80%” with Puccinia recondita.

Turning to `CCC1(C(=O)NCCc2cc(Cl)sc2Cl)C(C)C1(Cl)Cl` (configuration not stated), the Activity entry (in assay [1]; with Botrytis cinerea; with Blumeria graminis; with Puccinia recondita) was “>=80%” each time.

For `CC(C)(C)CC(=O)NCCc1csc(Cl)c1`, the Activity entry in assay [1] was “>=80%”; with Botrytis cinerea, “>=80%”; with Blumeria graminis, 1.5%; in the assay on Puccinia recondita, “>=80%”.

As for `CC(Cc1ccc(C(C)(C)C)cc1)CN1CCCCC1` (configuration not stated) [FENPROPIDIN], the Activity with Blumeria graminis amounted to 0%.

In the case of `N#Cc1c[nH]cc1-c1cccc2c1OC(F)(F)O2` [FLUDIOXONIL], the Activity in the assay with Botrytis cinerea was determined as 0%.
